This is an account of results in US8580794B2 (AbbVie Inc., priority 2009, dated 2013).

The target of the assay is GST-Bc1-2 (Homo sapiens, UniProt P10415). The assay can be described thus: Time Resolved-Fluorescence Resonance Energy Transfer (TR-FRET) Bcl-2 binding assay with F-Bak peptide probe. The settings on record: GST-Bcl-2 1 nM, F-Bak probe 100 nM, Tb-anti-GST 1 nM; '<' = below limit of detection; read-out: TR-FRET Bcl-2 Binding Ki.
Sequence of GST-Bc1-2 (P10415 whole entry): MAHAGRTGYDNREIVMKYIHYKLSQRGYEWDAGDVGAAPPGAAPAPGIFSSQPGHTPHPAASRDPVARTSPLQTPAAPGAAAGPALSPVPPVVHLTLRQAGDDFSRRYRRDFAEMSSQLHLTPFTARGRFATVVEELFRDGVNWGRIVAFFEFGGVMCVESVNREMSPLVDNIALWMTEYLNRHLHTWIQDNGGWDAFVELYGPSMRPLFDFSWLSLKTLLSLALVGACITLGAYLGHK
On to `CC1(C)CCC(CN2CCN(c3ccc(C(=O)NS(=O)(=O)c4cnc(NCC5CCOCC5)c(C#N)c4)c(Oc4cnc5[nH]ccc5c4)c3)CC2)=C(c2ccc(Cl)cc2)C1` [Example 106, 4-(4-{[2-(4-chlorophenyl)-4,4-dimethylcyclohex-1-en-1-yl]methyl}piperazin-1-yl)-N-({5-cyano-6-[(tetrahydro-2H-pyran-4-ylmethyl)amino]pyridin-3-yl}sulfonyl)-2-(1H-pyrrolo[2,3-b]pyridin-5-yloxy)benzamide], for which the inhibition constant Ki worked out at 0.895 nM. `CC1(C)CCC(CN2CCN(c3ccc(C(=O)NS(=O)(=O)c4ccc(NCC5(N)CCOCC5)c([N+](=O)[O-])c4)c(Oc4cnc5[nH]ccc5c4)c3)CC2)=C(c2ccc(Cl)cc2)C1` [Example 108, N-[(4-{[(4-aminotetrahydro-2H-pyran-4-yl)methyl]amino}-3-nitrophenyl)sulfonyl]-4-(4-{[2-(4-chlorophenyl)-4,4-dimethylcyclohex-1-en-1-yl]methyl}piperazin-1-yl)-2-(1H-pyrrolo[2,3-b]pyridin-5-yloxy)benzamide]: the inhibition constant (Ki) is < 0.01 nM. To `CC1(C)CCC(CN2CCN(c3ccc(C(=O)NS(=O)(=O)c4cnc(N[C@H]5CC[C@H](N6CCOCC6)CC5)c(C#N)c4)c(Oc4cnc5[nH]ccc5c4)c3)CC2)=C(c2ccc(Cl)cc2)C1` [Example 109, Trans-4-(4-{[2-(4-chlorophenyl)-4,4-dimethylcyclohex-1-en-1-yl]methyl}piperazin-1-yl)-N-({5-cyano-6-[(4-morpholin-4-ylcyclohexyl)amino]pyridin-3-yl}sulfonyl)-2-(1H-pyrrolo[2,3-b]pyridin-5-yloxy)benzamide] belongs 0.127 nM; to `CC1(C)CCC(CN2CCN(c3ccc(C(=O)NS(=O)(=O)c4ccc(NCC5CCOCC5)c(C#N)c4)c(Oc4cnc5[nH]ccc5c4)c3)CC2)=C(c2ccc(Cl)cc2)C1` [Example 110, 4-(4-{[2-(4-chlorophenyl)-4,4-dimethylcyclohex-1-en-1-yl]methyl}piperazin-1-yl)-N-({3-cyano-4-[(tetrahydro-2H-pyran-4-ylmethyl)amino]phenyl}sulfonyl)-2-(1H-pyrrolo[2,3-b]pyridin-5-yloxy)benzamide], 0.557 nM; to `CC1(C)CCC(CN2CCN(c3ccc(C(=O)NS(=O)(=O)c4ccc(N[C@H]5CC[C@@H](N6CCOCC6)C5)c([N+](=O)[O-])c4)c(Oc4cnc5[nH]ccc5c4)c3)CC2)=C(c2ccc(Cl)cc2)C1` [Example 111, 4-(4-{[2-(4-chlorophenyl)-4,4-dimethylcyclohex-1-en-1-yl]methyl}piperazin-1-yl)-N-[(4-{[(1S,3R)-3-morpholin-4-ylcyclopentyl]amino}-3-nitrophenyl)sulfonyl]-2-(1H-pyrrolo[2,3-b]pyridin-5-yloxy)benzamide], < 0.01 nM. Turning to `CC1(C)CCC(CN2CCN(c3ccc(C(=O)NS(=O)(=O)c4ccc(N[C@@H]5CC[C@H](N6CCOCC6)C5)c([N+](=O)[O-])c4)c(Oc4cnc5[nH]ccc5c4)c3)CC2)=C(c2ccc(Cl)cc2)C1` [Example 112, 4-(4-{[2-(4-chlorophenyl)-4,4-dimethylcyclohex-1-en-1-yl]methyl}piperazin-1-yl)-N-[(4-{[(1R,3S)-3-morpholin-4-ylcyclopentyl]amino}-3-nitrophenyl)sulfonyl]-2-(1H-pyrrolo[2,3-b]pyridin-5-yloxy)benzamide], the inhibition constant (Ki) was < 0.01 nM. Turning to `CC1(C)CCC(CN2CCN(c3ccc(C(=O)NS(=O)(=O)c4ccc(NCC5CNCCO5)c([N+](=O)[O-])c4)c(Oc4cnc5[nH]ccc5c4)c3)CC2)=C(c2ccc(Cl)cc2)C1` (stereo not drawn) [Example 113, 4-(4-{[2-(4-chlorophenyl)-4,4-dimethylcyclohex-1-en-1-yl]methyl}piperazin-1-yl)-N-({4-[(morpholin-2-ylmethyl)amino]-3-nitrophenyl}sulfonyl)-2-(1H-pyrrolo[2,3-b]pyridin-5-yloxy)benzamide], the inhibition constant Ki is < 0.01 nM. For the compound `CC1(C)CCC(CN2CCN(c3ccc(C(=O)NS(=O)(=O)c4ccc(NCC5CCOC5)c([N+](=O)[O-])c4)c(Oc4cnc5[nH]ccc5c4)c3)CC2)=C(c2ccc(Cl)cc2)C1` (stereo not drawn) [Example 114, 4-(4-{[2-(4-chlorophenyl)-4,4-dimethylcyclohex-1-en-1-yl]methyl}piperazin-1-yl)-N-({3-nitro-4-[(tetrahydrofuran-3-ylmethyl)amino]phenyl}sulfonyl)-2-(1H-pyrrolo[2,3-b]pyridin-5-yloxy)benzamide], the inhibitory constant (Ki) was < 0.01 nM. To `CC1(C)CCC(CN2CCN(c3ccc(C(=O)NS(=O)(=O)c4ccc(NC5CN(C6CCOCC6)C5)c([N+](=O)[O-])c4)c(Oc4cnc5[nH]ccc5c4)c3)CC2)=C(c2ccc(Cl)cc2)C1` [Example 116, 4-(4-{[2-(4-chlorophenyl)-4,4-dimethylcyclohex-1-en-1-yl]methyl}piperazin-1-yl)-N-({3-nitro-4-[(1-tetrahydro-2H-pyran-4-ylazetidin-3-yl)amino]phenyl}sulfonyl)-2-(1H-pyrrolo[2,3-b]pyridin-5-yloxy)benzamide] belongs < 0.01 nM; to `CC1(C)CCC(CN2CCN(c3ccc(C(=O)NS(=O)(=O)c4ccc(NC5CN(C6CCOC6)C5)c([N+](=O)[O-])c4)c(Oc4cnc5[nH]ccc5c4)c3)CC2)=C(c2ccc(Cl)cc2)C1` (stereo not drawn) [Example 117, 4-(4-{[2-(4-chlorophenyl)-4,4-dimethylcyclohex-1-en-1-yl]methyl}piperazin-1-yl)-N-({3-nitro-4-[(1-tetrahydrofuran-3-ylazetidin-3-yl)amino]phenyl}sulfonyl)-2-(1H-pyrrolo[2,3-b]pyridin-5-yloxy)benzamide], < 0.01 nM.

Consider `CC1(C)CCC(CN2CCN(c3ccc(C(=O)NS(=O)(=O)c4ccc(NC[C@H]5CCN(C6CCOCC6)C5)c([N+](=O)[O-])c4)c(Oc4cnc5[nH]ccc5c4)c3)CC2)=C(c2ccc(Cl)cc2)C1` [Example 118, 4-(4-{[2-(4-chlorophenyl)-4,4-dimethylcyclohex-1-en-1-yl]methyl}piperazin-1-yl)-N-{[3-nitro-4-({[(3R)-1-tetrahydro-2H-pyran-4-ylpyrrolidin-3-yl]methyl}amino)phenyl]sulfonyl}-2-(1H-pyrrolo[2,3-b]pyridin-5-yloxy)benzamide], for which the Ki was < 0.01 nM. With `CC1(C)CCC(c2ccc(Cl)cc2)=C(CN2CCN(c3ccc(C(=O)NS(=O)(=O)c4ccc(OCC5(F)CCOCC5)c([N+](=O)[O-])c4)c(Oc4cnc5[nH]ccc5c4)c3)CC2)C1` [Example 119, 4-(4-{[2-(4-chlorophenyl)-5,5-dimethylcyclohex-1-en-1-yl]methyl}piperazin-1-yl)-N-({4-[(4-fluorotetrahydro-2H-pyran-4-yl)methoxy]-3-nitrophenyl}sulfonyl)-2-(1H-pyrrolo[2,3-b]pyridin-5-yloxy)benzamide], the Ki is < 0.01 nM. To `CO[C@H]1CC[C@@H](COc2ccc(S(=O)(=O)NC(=O)c3ccc(N4CCN(CC5=C(c6ccc(Cl)cc6)CC(C)(C)CC5)CC4)cc3Oc3cnc4[nH]ccc4c3)cc2[N+](=O)[O-])CC1` [Example 121, 2-(1H-pyrrolo[2,3-b]pyridin-5-yloxy)-4-(4-((2-(4-chlorophenyl)-4,4-dimethylcyclohex-1-enyl)methyl)piperazin-1-yl)-N-(4-((cis-4-methoxycyclohexyl)methoxy)-3-nitrophenylsulfonyl)benzamide] belongs < 0.01 nM. Turning to `CC1(C)CCC(CN2CCN(c3ccc(C(=O)NS(=O)(=O)c4ccc(N[C@H]5CC[C@@H](NC6CC6)CC5)c([N+](=O)[O-])c4)c(Oc4cnc5[nH]ccc5c4)c3)CC2)=C(c2ccc(Cl)cc2)C1` [Example 122, Cis-4-(4-{[2-(4-chlorophenyl)-4,4-dimethylcyclohex-1-en-1-yl]methyl}piperazin-1-yl)-N-[(4-{[4-(cyclopropylamino)cyclohexyl]amino}-3-nitrophenyl)sulfonyl]-2-(1H-pyrrolo[2,3-b]pyridin-5-yloxy)benzamide], the Ki is < 0.01 nM. To `CC1(C)CCC(CN2CCN(c3ccc(C(=O)NS(=O)(=O)c4ccc(N[C@H]5CC[C@H](NC6CCOCC6)CC5)c([N+](=O)[O-])c4)c(Oc4cnc5[nH]ccc5c4)c3)CC2)=C(c2ccc(Cl)cc2)C1` [Example 123, Trans-4-(4-{[2-(4-chlorophenyl)-4,4-dimethylcyclohex-1-en-1-yl]methyl}piperazin-1-yl)-N-[(3-nitro-4-{[4-(tetrahydro-2H-pyran-4-ylamino)cyclohexyl]amino}phenyl)sulfonyl]-2-(1H-pyrrolo[2,3-b]pyridin-5-yloxy)benzamide] belongs < 0.01 nM; to `CC1(C)CCC(CN2CCN(c3ccc(C(=O)NS(=O)(=O)c4cnc(O[C@H]5CC[C@H](N6CCOCC6)CC5)c(Br)c4)c(Oc4cnc5[nH]ccc5c4)c3)CC2)=C(c2ccc(Cl)cc2)C1` [Example 124, Trans-N-({5-bromo-6-[(4-morpholin-4-ylcyclohexyl)oxy]pyridin-3-yl}sulfonyl)-4-(4-{[2-(4-chlorophenyl)-4,4-dimethylcyclohex-1-en-1-yl]methyl}piperazin-1-yl)-2-(1H-pyrrolo[2,3-b]pyridin-5-yloxy)benzamide], < 0.01 nM; to `CO[C@H]1CC[C@H](COc2ccc(S(=O)(=O)NC(=O)c3ccc(N4CCN(CC5=C(c6ccc(Cl)cc6)CC(C)(C)CC5)CC4)cc3Oc3cnc4[nH]ccc4c3)cc2[N+](=O)[O-])CC1` [Example 125, Trans-4-(4-{[2-(4-chlorophenyl)-4,4-dimethylcyclohex-1-en-1-yl]methyl}piperazin-1-yl)-N-({4-[(4-methoxycyclohexyl)methoxy]-3-nitrophenyl}sulfonyl)-2-(1H-pyrrolo[2,3-b]pyridin-5-yloxy)benzamide], < 0.01 nM. To `CC1(C)CCC(CN2CCN(c3ccc(C(=O)NS(=O)(=O)c4ccc(OCC5(F)CCN(C(=O)OC(C)(C)C)CC5)c([N+](=O)[O-])c4)c(Oc4cnc5[nH]ccc5c4)c3)CC2)=C(c2ccc(Cl)cc2)C1` [Example 126, tert-butyl 4-{[4-({[4-(4-{[2-(4-chlorophenyl)-4,4-dimethylcyclohex-1-en-1-yl]methyl}piperazin-1-yl)-2-(1H-pyrrolo[2,3-b]pyridin-5-yloxy)benzoyl]amino}sulfonyl)-2-nitrophenoxy]methyl}-4-fluoropiperidine-1-carboxylate] belongs < 0.01 nM.

One may read the Ki as a measure of affinity in units of concentration, obtained from inhibition or displacement.
